The nature of data set [1]: Determination of bio-accumulation: urinary clearance pharmacokinetic study in rats. The note with it: male Sprague Dawley rats, 73 micro Moles per kg, oral gavage; for Compound-related Effects: clinical signs of toxicity and gross necropsy at 96 hours post-dose; for % Recovery (96 h): recovery of compound in urine 96 h post-dose; for T ½: renal (urinary) elimination half-life, parent compound in urine by fluorine NMR, exponential least squares curve fitting.
Experimental: (§1) The perfluorinated and partially fluorinated carboxylates were evaluated for urinary clearance using a pharmacokinetic study in rats. The goal was to measure the total amount of parent compound eliminated via urinary output and estimate the rate of elimination.
(§2) The study utilized male Sprague Dawley rats, 6 to 8 weeks of age, and approximately 200 to 250 g body weight at study onset. The test compounds of Table 2 were administered at a dose of 73 micro Moles per kg body weight in rats (N=3 animals per tested compound). All test compounds were prepared in sterile deionized water and given to rats via oral gavage. After test compound administration, the rats were housed individually in metabolism cages for urine collection: 0 to 6 hours, 6 to 24 hours, 24 to 48 hours and 72 to 96 hours. Animals were observed throughout the study for clinical signs of toxicity. Gross necropsy was performed at the termination of each study (96 hours post-dose) with sera and liver samples being retained from each animal.
(§3) The concentration of the parent compound or metabolites thereof were quantitatively measured via fluorine NMR on each urine sample for each animal at each time point based on internally added standards.
(§4) In Table 2, T1/2 is the time required for the amount of a particular substance in a biological system to be reduced to one half of its value by biological processes when the rate of removal is approximately exponential. In these examples the value of T1/2 is calculated by exponential least squares curve fitting (y=AeBX and T1/2=0.693/B) where y represents the concentration of analyte in urine and x represents time in hours.

The conditions of data set [2]: rat, in vivo, po.
Experimental: as §1, §2, §3, §4

Like-named read-outs stand apart in the source and are kept apart here.

As to `N.O=C(O)C(F)(F)C(F)(F)C(F)(F)C(F)(F)C(F)(F)C(F)(F)C(F)(F)F` [Example C1, CF3(CF2)6COONH4], in data set [1], the “Compound-related Effects” value is “Hepatomegaly”, the “% Recovery (96 h)” value is 6% and the “T ½” value is ~22.9 days.
Take `N.O=C(O)C(F)(F)OC(F)(F)C(F)(OC(F)(F)C(F)(F)C(F)(F)F)C(F)(F)F` (centres unmarked) [Example C2, CF3CF2CF2OCF(CF3)CF2OCF2COONH4]: the “Compound-related Effects” value in data set [2] is given as “Hepatomegaly”.
Still for that read-out and setting: next, `N.O=C(O)C(F)(F)C(F)(F)C(F)(F)C(F)(F)C(F)(F)OC(F)C(F)(F)F` (centres unmarked) [Example 3, CF3—CFH—O—(CF2)5—COONH4]: “Hepatomegaly”.
`N.O=C(O)C(F)(F)C(F)(F)OC(F)(F)C(F)(F)C(F)(F)C(F)(F)F` [Example 1, C4F9—O—CF2—CF2—COONH4]: in data set [1], the “Compound-related Effects” value is recorded as “Hepatomegaly”, the “% Recovery (96 h)” value amounted to 42% and the “T ½” value was found to be 1.29 days.

(Values after patent US20070276103A1, “Fluorinated Surfactants” (3M Innovative Properties Company, priority 2006, published 2007).)
